Literature values as cited in patent publication US8097606B2, “Antiglucocorticoids for the treatment of catatonia” (Corcept Therapeutics, Inc., priority 2003, dated 2012).

share of the daily dose excreted in the urine: less than 0.5%
Structure (SMILES): CC#C[C@]1(O)CC[C@H]2[C@@H]3CCC4=CC(=O)CCC4=C3[C@@H](c3ccc(N(C)C)cc3)C[C@@]21C [mifepristone, 17-β-hydroxy-11-β-(4-dimethyl-aminophenyl)-17-α-(1-propynyl)-estra-4,9-dien-3-one]
